Calls of active or inactive are those of the source. No rule for the calls is given here.

The values that follow come from PubChem BioAssay AID1259407 (Chemical Carcinogenesis Research Information System (CCRIS), 2018).

This data set concerns CCRIS mutagenicity, Ames/micronucleus/aberration tests. Put plainly: CCRIS mutagenicity studies.
Setting [1] is: Test System: AMES SALMONELLA TYPHIMURIUM, Strain/Indicator: TA98, Metabolic Activation: NONE, Method: PREINCUBATION
[2] abbreviates: Test System: AMES SALMONELLA TYPHIMURIUM, Strain/Indicator: TA100, Metabolic Activation: NONE, Method: PREINCUBATION
The mark [3] stands for this setting: Test System: AMES SALMONELLA TYPHIMURIUM, Strain/Indicator: TA1535, Metabolic Activation: NONE, Method: PREINCUBATION

In the case of `ClC1C(Br)C(Br)C(Br)C(Br)C1Br` (centres undefined), the mutagenic call is “inactive; negative” (Test System: AMES SALMONELLA TYPHIMURIUM, Strain/Indicator: TA97, Metabolic Activation: HAMSTER, LIVER, S-9, AROCLOR 1254 (5, 10 OR 30%), Method: PREINCUBATION); “inactive; negative” (Test System: AMES SALMONELLA TYPHIMURIUM, Strain/Indicator: TA97, Metabolic Activation: NONE, Method: PREINCUBATION); “inactive; negative” (Test System: AMES SALMONELLA TYPHIMURIUM, Strain/Indicator: TA97, Metabolic Activation: RAT, LIVER, S-9, AROCLOR 1254 (10 OR 30%), Method: PREINCUBATION); “inactive; negative” (Test System: AMES SALMONELLA TYPHIMURIUM, Strain/Indicator: TA98, Metabolic Activation: HAMSTER, LIVER, S-9, AROCLOR 1254 (10 OR 30%), Method: PREINCUBATION); “inactive; negative” under setting [1]; “inactive; negative” (Test System: AMES SALMONELLA TYPHIMURIUM, Strain/Indicator: TA98, Metabolic Activation: RAT, LIVER, S-9, AROCLOR 1254 (10 OR 30%), Method: PREINCUBATION). Besides, the mutagenic call was “inactive; negative” (Test System: AMES SALMONELLA TYPHIMURIUM, Strain/Indicator: TA100, Metabolic Activation: HAMSTER, LIVER, S-9, AROCLOR 1254 (10%), Method: PREINCUBATION); “inactive; negative” (Test System: AMES SALMONELLA TYPHIMURIUM, Strain/Indicator: TA100, Metabolic Activation: HAMSTER, LIVER, S-9, AROCLOR 1254 (30%), Method: PREINCUBATION); “inactive; negative” under setting [2]; “inactive; negative” (Test System: AMES SALMONELLA TYPHIMURIUM, Strain/Indicator: TA100, Metabolic Activation: RAT, LIVER, S-9, AROCLOR 1254 (10 OR 30%), Method: PREINCUBATION); “inactive; negative” (Test System: AMES SALMONELLA TYPHIMURIUM, Strain/Indicator: TA1535, Metabolic Activation: HAMSTER, LIVER, S-9, AROCLOR 1254 (5 OR 10%), Method: PREINCUBATION); “inactive; negative” (Test System: AMES SALMONELLA TYPHIMURIUM, Strain/Indicator: TA1535, Metabolic Activation: HAMSTER, LIVER, S-9, AROCLOR 1254 (30%), Method: PREINCUBATION). For the same compound, the mutagenic call is “inactive; negative” under setting [3] and “inactive; negative” (Test System: AMES SALMONELLA TYPHIMURIUM, Strain/Indicator: TA1535, Metabolic Activation: RAT, LIVER, S-9, AROCLOR 1254 (10 OR 30%), Method: PREINCUBATION).
Regarding `Oc1ccc2cc3c4ccccc4c4ccccc4c3cc2c1`, the mutagenic call (Test System: AMES SALMONELLA TYPHIMURIUM, Strain/Indicator: TA100, Metabolic Activation: RAT, LIVER, S-9, AROCLOR 1254, Method: PREINCUBATION) was “active; positive”.
For the compound `Cc1ccc(S(=O)(=O)NN)cc1`, the mutagenic call is “active; positive (structural changes)” (End Point: IN VITRO CHROMOSOMAL ABERRATIONS, Test System: CHL CELLS, Metabolic Activation: RAT, LIVER, S-9, SODIUM PHENOBARBITAL AND 5,6-BENZOFLAVONE); “inactive; negative” (Test System: AMES SALMONELLA TYPHIMURIUM, Strain/Indicator: TA97, Metabolic Activation: NONE, Method: STANDARD PLATE); “inactive; negative” (Test System: AMES SALMONELLA TYPHIMURIUM, Strain/Indicator: TA97, Metabolic Activation: RAT, LIVER, S-9, AROCLOR 1254, Method: STANDARD PLATE); “inactive; negative” (Test System: AMES SALMONELLA TYPHIMURIUM, Strain/Indicator: TA98, Metabolic Activation: HAMSTER, LIVER, S-9, AROCLOR 1254, Method: STANDARD PLATE); “inactive; negative” under setting [1]; “inactive; negative” (Test System: AMES SALMONELLA TYPHIMURIUM, Strain/Indicator: TA98, Metabolic Activation: NONE, Method: STANDARD PLATE). Moreover, the mutagenic call by setting is: (Test System: AMES SALMONELLA TYPHIMURIUM, Strain/Indicator: TA98, Metabolic Activation: RAT LIVER S-9, PHENOBARBITAL AND BETA-NAPHTHOFLAVONE, Method: PREINCUBATION) “inactive; negative”; (Test System: AMES SALMONELLA TYPHIMURIUM, Strain/Indicator: TA98, Metabolic Activation: RAT, LIVER, S-9, AROCLOR 1254, Method: STANDARD PLATE) “inactive; negative”; (Test System: AMES SALMONELLA TYPHIMURIUM, Strain/Indicator: TA100, Metabolic Activation: HAMSTER, LIVER, S-9, AROCLOR 1254, Method: STANDARD PLATE) “active; positive”; under setting [2], “active; positive”; (Test System: AMES SALMONELLA TYPHIMURIUM, Strain/Indicator: TA100, Metabolic Activation: NONE, Method: STANDARD PLATE) “active; positive”; (Test System: AMES SALMONELLA TYPHIMURIUM, Strain/Indicator: TA100, Metabolic Activation: RAT LIVER S-9, PHENOBARBITAL AND BETA-NAPHTHOFLAVONE, Method: PREINCUBATION) “active; positive”. For the same compound, the mutagenic call (Test System: AMES SALMONELLA TYPHIMURIUM, Strain/Indicator: TA100, Metabolic Activation: RAT, LIVER, S-9, AROCLOR 1254, Method: STANDARD PLATE) was “active; positive”; the mutagenic call (Test System: AMES SALMONELLA TYPHIMURIUM, Strain/Indicator: TA102, Metabolic Activation: NONE, Method: STANDARD PLATE) was “inactive; negative”; the mutagenic call (Test System: AMES SALMONELLA TYPHIMURIUM, Strain/Indicator: TA102, Metabolic Activation: RAT, LIVER, S-9, AROCLOR 1254, Method: STANDARD PLATE) was “inactive; negative”; the mutagenic call under setting [3] was “active; positive”; the mutagenic call (Test System: AMES SALMONELLA TYPHIMURIUM, Strain/Indicator: TA1535, Metabolic Activation: RAT LIVER S-9, PHENOBARBITAL AND BETA-NAPHTHOFLAVONE, Method: PREINCUBATION) is “active; positive”; the mutagenic call (Test System: AMES SALMONELLA TYPHIMURIUM, Strain/Indicator: TA1537, Metabolic Activation: NONE, Method: PREINCUBATION) is “inactive; negative”. Moreover, the mutagenic call runs as follows: (Test System: AMES SALMONELLA TYPHIMURIUM, Strain/Indicator: TA1537, Metabolic Activation: RAT LIVER S-9, PHENOBARBITAL AND BETA-NAPHTHOFLAVONE, Method: PREINCUBATION) “inactive; negative”; (Test System: AMES SALMONELLA TYPHIMURIUM, Strain/Indicator: TA1538, Metabolic Activation: NONE, Method: PREINCUBATION) “inactive; negative”; (Test System: AMES SALMONELLA TYPHIMURIUM, Strain/Indicator: TA1538, Metabolic Activation: RAT LIVER S-9, PHENOBARBITAL AND BETA-NAPHTHOFLAVONE, Method: PREINCUBATION) “inactive; negative”; (Test System: E.COLI, Strain/Indicator: WP2UVRA, Metabolic Activation: NONE, Method: PREINCUBATION) “active; positive”; (Test System: E.COLI, Strain/Indicator: WP2UVRA, Metabolic Activation: RAT LIVER S-9, PHENOBARBITAL AND BETA-NAPHTHOFLAVONE, Method: PREINCUBATION) “active; positive”; (Test System: MOUSE LYMPHOMA, Strain/Indicator: L5178Y (TK+/TK-), Metabolic Activation: NONE, Method: SUSPENSION/PLATE) “active; positive. reevaluation of results: positive”. Besides, the mutagenic call (Test System: MOUSE LYMPHOMA, Strain/Indicator: L5178Y (TK+/TK-), Metabolic Activation: RAT, LIVER, S-9, AROCLOR 1254, Method: SUSPENSION/PLATE) was “active; positive. reevaluation of results: equivocal”.
Consider `CC1(C)CC(C(=O)NC(CO)C(O)CO)C(C)(C)N1O` (centres undefined), for which the mutagenic call (Test System: CHO, Strain/Indicator: CHO/6-THIOGUANINE, Metabolic Activation: NONE, Method: STANDARD PLATE) was “inactive; negative”; the mutagenic call (Test System: CHO, Strain/Indicator: CHO/6-THIOGUANINE, Metabolic Activation: RAT, LIVER, S-9, AROCLOR 1254, Method: STANDARD PLATE) was “inactive; negative”; the mutagenic call (Test System: CHO, Strain/Indicator: CHO/OUABAIN, Metabolic Activation: NONE, Method: STANDARD PLATE) is “inactive; negative”; the mutagenic call (Test System: CHO, Strain/Indicator: CHO/OUABAIN, Metabolic Activation: RAT, LIVER, S-9, AROCLOR 1254, Method: STANDARD PLATE) is “inactive; negative”.
